This note sets out measurements from US8877769B2, “Heteroaryl-substituted urea modulators of fatty acid amide hydrolase” (Janssen Pharmaceutica NV, priority 2008, dated 2014).

One assay deals with T1, FAAH (Homo sapiens, UniProt O00519).
T1 sequence (O00519 1-579): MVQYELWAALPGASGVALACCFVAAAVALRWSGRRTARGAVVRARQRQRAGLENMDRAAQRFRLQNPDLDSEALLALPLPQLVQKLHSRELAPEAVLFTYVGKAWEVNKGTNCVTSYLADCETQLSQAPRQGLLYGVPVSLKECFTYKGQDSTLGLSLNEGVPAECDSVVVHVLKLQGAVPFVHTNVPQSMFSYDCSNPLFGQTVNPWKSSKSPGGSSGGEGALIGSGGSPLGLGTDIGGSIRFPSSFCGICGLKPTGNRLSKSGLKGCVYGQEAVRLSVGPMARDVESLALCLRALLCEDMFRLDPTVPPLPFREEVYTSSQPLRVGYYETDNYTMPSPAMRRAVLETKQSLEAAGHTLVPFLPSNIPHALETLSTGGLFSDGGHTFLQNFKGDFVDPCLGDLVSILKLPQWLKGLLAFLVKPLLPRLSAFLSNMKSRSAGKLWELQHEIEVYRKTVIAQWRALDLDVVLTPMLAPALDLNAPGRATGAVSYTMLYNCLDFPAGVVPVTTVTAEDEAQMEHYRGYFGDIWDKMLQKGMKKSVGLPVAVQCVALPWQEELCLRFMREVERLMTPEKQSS
Put plainly: Assay Method 1: FAAH assay, 3H-anandamide hydrolysis in cell homogenate.

In another assay the target is T2, Rat FAAH (Rattus norvegicus, UniProt P97612).
T2 construct: expressed in transfected cells
T2 sequence (P97612 1-579): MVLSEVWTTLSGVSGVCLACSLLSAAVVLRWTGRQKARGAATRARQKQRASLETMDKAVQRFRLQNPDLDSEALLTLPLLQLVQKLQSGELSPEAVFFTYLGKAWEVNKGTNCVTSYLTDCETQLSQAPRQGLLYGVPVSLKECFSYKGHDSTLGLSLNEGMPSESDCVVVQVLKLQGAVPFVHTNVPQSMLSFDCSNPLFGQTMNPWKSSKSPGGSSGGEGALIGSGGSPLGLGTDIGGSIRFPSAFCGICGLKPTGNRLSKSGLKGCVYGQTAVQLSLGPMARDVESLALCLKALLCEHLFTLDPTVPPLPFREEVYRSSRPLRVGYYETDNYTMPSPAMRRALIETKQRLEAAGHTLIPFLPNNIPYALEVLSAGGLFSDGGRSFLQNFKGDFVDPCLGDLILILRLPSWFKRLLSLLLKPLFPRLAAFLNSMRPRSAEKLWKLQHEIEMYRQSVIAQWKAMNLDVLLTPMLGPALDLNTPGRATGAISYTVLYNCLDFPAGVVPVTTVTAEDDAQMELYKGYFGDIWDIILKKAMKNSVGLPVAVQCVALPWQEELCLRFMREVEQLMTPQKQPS
The experiment in a line: Assay Method 2: FAAH assay, 3H-anandamide hydrolysis in cell homogenate. In kind it is biochemical. The following applies: average of results obtained, > value = solubility limit or highest concentration tested. On the procedure:
A. Transfection of Cells with Rat FAAH
The assay mixture consisted of 50 μL of the cell homogenate, 10 μL of the test compound, and 40 μL of anandamide [1-^3H-ethanolamine] (^3H-AEA, Perkin-Elmer, 10.3 Ci/mmol), which was added last, for a final tracer concentration of 80 nM. The reaction mixture was incubated at rt for 1 h. During the incubation, 96-well Multiscreen filter plates (catalog number MAFCNOB50; Millipore, Bedford, Mass., USA) were loaded with 25 μL of activated charcoal (Multiscreen column loader, catalog number MACL09625, Millipore) and washed once with 100 μL of MeOH. […] After the 1 h incubation, 60 μL of the reaction mixture were transferred to the charcoal plates, which were then assembled on top of the DYNEX plates using Centrifuge Alignment Frames (catalog number MACF09604, Millipore). The unbound labeled ethanolamine was centrifuged through to the bottom plate (5 min at 2000 rpm), which was preloaded with the scintillant, as described above. The plates were sealed and left at rt for 1 h before counting on a Hewlett Packard TopCount.

Regarding `O=C(Nc1noc2ncccc12)N1CCN(Cc2cnc3ccccc3c2)CC1` [Example 10, 4-Quinolin-3-ylmethyl-piperazine-1-carboxylic acid isoxazolo[5,4-b]pyridin-3-ylamide], the IC50 on FAAH and on Rat FAAH was above 10 µM in each case.
On to `O=C(Nc1noc2ncccc12)N1CCN(Cc2ccc(Br)cc2)CC1` [Example 11, 4-(4-Bromo-benzyl)-piperazine-1-carboxylic acid isoxazolo[5,4-b]pyridin-3-ylamide], for which the IC50 on FAAH and on Rat FAAH was above 10 µM each time.
Regarding `O=C(Nc1noc2ncccc12)N1CCN(Cc2ccc3ccccc3n2)CC1` [Example 12, 4-Quinolin-2-ylmethyl-piperazine-1-carboxylic acid isoxazolo[5,4-b]pyridin-3-ylamide], the IC50 is 2.6 µM on FAAH and above 10 µM against Rat FAAH.
For `O=C(Nc1noc2ncccc12)N1CCN(Cc2ccc(Cl)c(Cl)c2)CC1` [Example 13, 4-(3,4-Dichloro-benzyl)-piperazine-1-carboxylic acid isoxazolo[5,4-b]pyridin-3-ylamide] the same measures were 0.46 µM and 3 µM.
For `O=C(Nc1noc2ncccc12)N1CCN(Cc2cccc(Oc3ccc(F)c(C(F)(F)F)c3)c2)CC1` [Example 14, 4-[3-(4-Fluoro-3-trifluoromethyl-phenoxy)-benzyl]-piperazine-1-carboxylic acid isoxazolo[5,4-b]pyridin-3-ylamide] the same measures were 0.47 µM and 4 µM.
In the same order, the values of `O=C(Nc1noc2ncccc12)N1CCN(Cc2cccc(Oc3cccc(C(F)(F)F)c3)c2)CC1` [Example 15, 4-[3-(3-Trifluoromethyl-phenoxy)-benzyl]-piperazine-1-carboxylic acid isoxazolo[5,4-b]pyridin-3-ylamide] are 0.3 µM and 0.86 µM.
For `N#Cc1cccc(Oc2cccc(CN3CCN(C(=O)Nc4noc5ncccc45)CC3)c2)c1` [Example 16, 4-[3-(3-Cyano-phenoxy)-benzyl]-piperazine-1-carboxylic acid isoxazolo[5,4-b]pyridin-3-ylamide], the results for the IC50 against FAAH and against Rat FAAH were 2 µM and 6 µM, respectively.
For `O=C(Nc1noc2ncccc12)N1CCN(Cc2cccc(Oc3ccc(SC(F)(F)F)cc3)c2)CC1` [Example 17, 4-[3-(4-Trifluoromethylsulfanyl-phenoxy)-benzyl]-piperazine-1-carboxylic acid isoxazolo[5,4-b]pyridin-3-ylamide], the results for the IC50 against FAAH and against Rat FAAH were 0.47 µM and 0.18 µM, respectively.
Consider `O=C(Nc1noc2ncccc12)N1CCN(Cc2cccc(Oc3ccc4ncccc4c3)c2)CC1` [Example 18, 4-[3-(Quinolin-6-yloxy)-benzyl]-piperazine-1-carboxylic acid isoxazolo[5,4-b]pyridin-3-ylamide], for which the IC50 against FAAH is 6 µM; against Rat FAAH, above 10 µM.
In the same order, the values of `N#Cc1ccc(Oc2cccc(CN3CCN(C(=O)Nc4noc5ncccc45)CC3)c2)cc1C(F)(F)F` [Example 19, 4-[3-(4-Cyano-3-trifluoromethyl-phenoxy)-benzyl]-piperazine-1-carboxylic acid isoxazolo[5,4-b]pyridin-3-ylamide] are above 10 µM and above 10 µM.
In the same order, the values of `O=C(Nc1noc2ncccc12)N1CCN(Cc2cccc(OCc3ccccc3)c2)CC1` [Example 21, 4-(3-Benzyloxy-benzyl)-piperazine-1-carboxylic acid isoxazolo[5,4-b]pyridin-3-ylamide] are 2 µM and above 10 µM.
In the case of `O=C(Nc1noc2ncccc12)N1CCN(Cc2cccc(Oc3ccc(S(=O)(=O)C(F)(F)F)cc3)c2)CC1` [Example 22, 4-[3-(4-Trifluoromethanesulfonyl-phenoxy)-benzyl]-piperazine-1-carboxylic acid isoxazolo[5,4-b]pyridin-3-ylamide], the IC50 at FAAH and on Rat FAAH was above 10 µM in each case.
As to `O=C(Nc1noc2ncccc12)N1CCN(Cc2cccc(Oc3cccc(Cl)c3)c2)CC1` [Example 23, 4-[3-(3-Chloro-phenoxy)-benzyl]-piperazine-1-carboxylic acid isoxazolo[5,4-b]pyridin-3-ylamide], the IC50 at FAAH stood at 0.22 µM; at Rat FAAH, 0.3 µM.
On to `O=C(Nc1noc2ncccc12)N1CCN(Cc2cccc(Oc3ccc(Br)cc3)c2)CC1` [Example 24, 4-[3-(4-Bromo-phenoxy)-benzyl]-piperazine-1-carboxylic acid isoxazolo[5,4-b]pyridin-3-ylamide], for which the concentration for half-maximal inhibition (IC50) on FAAH stood at 0.034 µM; on Rat FAAH it was 0.053 µM.
For `O=C(Nc1noc2ncccc12)N1CCN(Cc2ccc(Br)c(Br)c2)CC1` [Example 25, 4-(3,4-Dibromo-benzyl)-piperazine-1-carboxylic acid isoxazolo[5,4-b]pyridin-3-ylamide] the same measures were 0.37 µM and 3 µM.
For `O=C(Nc1noc2ncccc12)N1CCN(Cc2cccc(Oc3ccc(F)c(F)c3)c2)CC1` [Example 26, 4-[3-(3,4-Difluoro-phenoxy)-benzyl]-piperazine-1-carboxylic acid isoxazolo[5,4-b]pyridin-3-ylamide] the same measures were 3.2 µM and above 10 µM.
For `O=C(Nc1noc2ncccc12)N1CCN(Cc2cccc(Oc3ccccc3)c2)CC1` [Example 27, 4-(3-Phenoxy-benzyl)-piperazine-1-carboxylic acid isoxazolo[5,4-b]pyridin-3-ylamide] the same measures were above 10 µM and above 10 µM.
With `O=C(Nc1noc2ncccc12)N1CCN(Cc2cc3ccccc3s2)CC1` [Example 28, 4-Benzo[b]thiophen-2-ylmethyl-piperazine-1-carboxylic acid isoxazolo[5,4-b]pyridin-3-ylamide], the results for the IC50 at FAAH and on Rat FAAH were 6 µM and above 10 µM, respectively.
`O=C(Nc1noc2ncccc12)N1CCN(Cc2cccc(Oc3ccc(C(F)(F)F)cc3)c2)CC1` [Example 30, 4-[3-(4-Trifluoromethyl-phenoxy)-benzyl]-piperazine-1-carboxylic acid isoxazolo[5,4-b]pyridin-3-ylamide]: the figures for the IC50 against FAAH and on Rat FAAH were 0.34 µM and 0.43 µM, respectively.
Regarding `O=C(Nc1noc2ncccc12)N1CCN(Cc2cc3ccccc3o2)CC1` [Example 31, 4-Benzofuran-2-ylmethyl-piperazine-1-carboxylic acid isoxazolo[5,4-b]pyridin-3-ylamide], the IC50 is 3 µM on FAAH and above 10 µM at Rat FAAH.
Turning to `N#Cc1ccc(Oc2cccc(CN3CCN(C(=O)Nc4noc5ncccc45)CC3)c2)cc1` [Example 32, 4-[3-(4-Cyano-phenoxy)-benzyl]-piperazine-1-carboxylic acid isoxazolo[5,4-b]pyridin-3-ylamide], the IC50 amounted to 0.3 µM at FAAH and 2.3 µM against Rat FAAH.
As to `O=C(Nc1noc2ncccc12)N1CCN(Cc2cccc(Oc3ccc(OCC(F)(F)F)cc3)c2)CC1` [Example 33, 4-{3-[4-(2,2,2-Trifluoro-ethoxy)-phenoxy]-benzyl}-piperazine-1-carboxylic acid isoxazolo[5,4-b]pyridin-3-ylamide], the IC50 at FAAH and against Rat FAAH was 0.2 µM each time.
Turning to `O=C(Nc1noc2ncccc12)N1CCN(Cc2cccc(Oc3ccc4c(c3)OC(F)(F)O4)c2)CC1` [Example 34, 4-[3-(2,2-Difluoro-benzo[1,3]dioxol-5-yloxy)-benzyl]-piperazine-1-carboxylic acid isoxazolo[5,4-b]pyridin-3-ylamide], the figures for the 50% inhibitory concentration (IC50) on FAAH and against Rat FAAH were above 0.06 µM and above 0.4 µM, respectively.

The IC50 is the point on the concentration scale where inhibition reaches its midpoint.
